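Five compound concentrations were applied to cells in 96-well plates for 48 hours; endpoints were derived by simple linear interpolation of the resulting dose-response curve. GI50 marks 50% less growth.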 The source made the active and inactive calls. No stated cut-off is given here; in the data, active = GI50 up to about 1.1 µM and inactive = higher.
Assays:
Test in all cases: NCI anticancer screen, dose series, 48 h
TK-10 = system: TK-10
RPMI-8226 = system: RPMI-8226
LXFL 529 = system: LXFL 529
SK-MEL-5 = system: SK-MEL-5
HOP-92 = system: HOP-92
OVCAR-5 = system: OVCAR-5
SF-295 = system: SF-295
ACHN = system: ACHN
COLO 205 = system: COLO 205
HOP-62 = system: HOP-62
HT-29 = system: HT-29
SW-620 = system: SW-620
SK-MEL-28 = system: SK-MEL-28
SNB-75 = system: SNB-75
K562 = system: K562
A549 = system: A549
MDA-MB-435 = system: MDA-MB-435
T47D = system: T47D
MDA-MB-231 = system: MDA-MB-231
MDA-N = system: MDA-N

## N#CC1C2CCC3(CC2CCN1C(=O)c1ccccc1)OCCO3 (stereo not given)
TK-10
  GI50: > 100 µM (inactive)
RPMI-8226
  GI50: > 100 µM (inactive)
LXFL 529
  GI50: > 100 µM (inactive)
SK-MEL-5
  GI50: > 100 µM (inactive)
HOP-92
  GI50: > 100 µM (inactive)
OVCAR-5
  GI50: > 100 µM (inactive)
SF-295
  GI50: > 100 µM (inactive)
ACHN
  GI50: > 100 µM (inactive)
COLO 205
  GI50: > 100 µM (inactive)
HOP-62
  GI50: > 100 µM (inactive)
HT-29
  GI50: > 100 µM (inactive)
SW-620
  GI50: > 100 µM (inactive)
SK-MEL-28
  GI50: > 100 µM (inactive)
SNB-75
  GI50: > 100 µM (inactive)
K562
  GI50: > 100 µM (inactive)
A549
  GI50: > 100 µM (inactive)

## N#CC(NNC(=O)Cc1ccccc1)c1ccc([N+](=O)[O-])cc1 (stereo not given)
TK-10
  GI50: > 100 µM (inactive)
RPMI-8226
  GI50: > 100 µM (inactive)
LXFL 529
  GI50: > 100 µM (inactive)
SK-MEL-5
  GI50: > 100 µM (inactive)
HOP-92
  GI50: 55.3 µM (inactive)
OVCAR-5
  GI50: > 100 µM (inactive)
SF-295
  GI50: > 100 µM (inactive)
ACHN
  GI50: > 100 µM (inactive)
COLO 205
  GI50: > 100 µM (inactive)
HOP-62
  GI50: > 100 µM (inactive)
HT-29
  GI50: > 100 µM (inactive)
SW-620
  GI50: > 100 µM (inactive)
SK-MEL-28
  GI50: > 100 µM (inactive)
SNB-75
  GI50: 65.6 µM (inactive)
K562
  GI50: > 100 µM (inactive)
A549
  GI50: > 100 µM (inactive)

## Cc1ccc(S(=O)(=O)N[C@H](C(=O)O)c2ccccc2)cc1
TK-10
  GI50: > 100 µM (inactive)
RPMI-8226
  GI50: 26.8 µM (inactive)
LXFL 529
  GI50: > 100 µM (inactive)
SK-MEL-5
  GI50: > 100 µM (inactive)
HOP-92
  GI50: > 100 µM (inactive)
OVCAR-5
  GI50: > 100 µM (inactive)
SF-295
  GI50: > 100 µM (inactive)
ACHN
  GI50: > 100 µM (inactive)
COLO 205
  GI50: > 100 µM (inactive)
HT-29
  GI50: > 100 µM (inactive)
SW-620
  GI50: > 100 µM (inactive)
SK-MEL-28
  GI50: > 100 µM (inactive)
SNB-75
  GI50: > 100 µM (inactive)
K562
  GI50: > 100 µM (inactive)
A549
  GI50: > 100 µM (inactive)

## CC1=C(C(=O)NCc2ccccc2)C(c2ccc([N+](=O)[O-])cc2)C(C(=O)NCc2ccccc2)=C(C)N1
TK-10
  GI50: 42.8 µM (inactive)
LXFL 529
  GI50: 36.7 µM (inactive)
SK-MEL-5
  GI50: 38.5 µM (inactive)
HOP-92
  GI50: 26.8 µM (inactive)
OVCAR-5
  GI50: 25.4 µM (inactive)
SF-295
  GI50: 37.1 µM (inactive)
ACHN
  GI50: 27.4 µM (inactive)
COLO 205
  GI50: 29.2 µM (inactive)
HOP-62
  GI50: > 100 µM (inactive)
HT-29
  GI50: 18.1 µM (inactive)
SW-620
  GI50: 63.7 µM (inactive)
SK-MEL-28
  GI50: 37.7 µM (inactive)
SNB-75
  GI50: 40.4 µM (inactive)
K562
  GI50: 31.2 µM (inactive)
A549
  GI50: 31.9 µM (inactive)

## CC(C)(C)C(=O)O[C@@H]1COC2C(O)COC21 (stereo not given in full)
TK-10
  GI50: > 100 µM (inactive)
LXFL 529
  GI50: > 100 µM (inactive)
SK-MEL-5
  GI50: > 100 µM (inactive)
HOP-92
  GI50: > 100 µM (inactive)
OVCAR-5
  GI50: > 100 µM (inactive)
SF-295
  GI50: > 100 µM (inactive)
ACHN
  GI50: > 100 µM (inactive)
COLO 205
  GI50: > 100 µM (inactive)
HOP-62
  GI50: > 100 µM (inactive)
HT-29
  GI50: > 100 µM (inactive)
SW-620
  GI50: > 100 µM (inactive)
SK-MEL-28
  GI50: > 100 µM (inactive)
SNB-75
  GI50: > 100 µM (inactive)
K562
  GI50: > 100 µM (inactive)
A549
  GI50: > 100 µM (inactive)

## CC1=CC(=O)NP(=O)(Oc2ccc(Cl)cc2)N1 (stereo not given)
TK-10
  GI50: > 100 µM (inactive)
RPMI-8226
  GI50: > 100 µM (inactive)
LXFL 529
  GI50: > 100 µM (inactive)
SK-MEL-5
  GI50: > 100 µM (inactive)
HOP-92
  GI50: > 100 µM (inactive)
OVCAR-5
  GI50: > 100 µM (inactive)
SF-295
  GI50: > 100 µM (inactive)
ACHN
  GI50: > 100 µM (inactive)
COLO 205
  GI50: > 100 µM (inactive)
HOP-62
  GI50: > 100 µM (inactive)
HT-29
  GI50: > 100 µM (inactive)
SW-620
  GI50: > 100 µM (inactive)
SK-MEL-28
  GI50: > 100 µM (inactive)
SNB-75
  GI50: > 100 µM (inactive)
K562
  GI50: 89.3 µM (inactive)
A549
  GI50: > 100 µM (inactive)

## C/C(=N\N(c1ccccc1)c1ccccc1)c1c(O)cc(C)oc1=O
TK-10
  GI50: > 100 µM (inactive)
LXFL 529
  GI50: 78.5 µM (inactive)
HOP-92
  GI50: 46.3 µM (inactive)
SF-295
  GI50: > 100 µM (inactive)
ACHN
  GI50: > 100 µM (inactive)
HOP-62
  GI50: > 100 µM (inactive)
HT-29
  GI50: > 100 µM (inactive)
SW-620
  GI50: > 100 µM (inactive)
SK-MEL-28
  GI50: > 100 µM (inactive)
SNB-75
  GI50: > 100 µM (inactive)
K562
  GI50: 62.7 µM (inactive)
A549
  GI50: 75 µM (inactive)

## CC(C)Cc1ccc(C(C)/C=C2\CCC(CN3CCCCC3)C2=O)cc1 (stereo not given)
TK-10
  GI50: 3.27 µM (inactive)
MDA-MB-435
  GI50: 13.6 µM (inactive)
T47D
  GI50: 5.09 µM (inactive)
RPMI-8226
  GI50: 0.611 µM (active)
LXFL 529
  GI50: 1.91 µM (inactive)
SK-MEL-5
  GI50: 13.5 µM (inactive)
HOP-92
  GI50: 10.1 µM (inactive)
OVCAR-5
  GI50: 17.4 µM (inactive)
SF-295
  GI50: 13.3 µM (inactive)
ACHN
  GI50: 6.98 µM (inactive)
COLO 205
  GI50: 5.81 µM (inactive)
HOP-62
  GI50: 8.69 µM (inactive)
HT-29
  GI50: 5.12 µM (inactive)
SW-620
  GI50: 3.45 µM (inactive)
MDA-MB-231
  GI50: 4.89 µM (inactive)
SK-MEL-28
  GI50: 3.21 µM (inactive)
SNB-75
  GI50: 15.6 µM (inactive)
K562
  GI50: 2.46 µM (inactive)
A549
  GI50: 20 µM (inactive)
MDA-N
  GI50: 3.7 µM (inactive)

Reference: ChEMBL document CHEMBL1201862, “PubChem BioAssay data set” (2004)
